Measurements reported in PMC10439028, “SGLT5 is the renal transporter for 1,5-anhydroglucitol, a major player in two rare forms of neutropenia” (Cellular and Molecular Life Sciences: CMLS, 2023).
“And” between values parts separate entries of the source, which are not always exact repeats. Identical values can stand only once. Like-named read-outs stand apart in the source and are kept apart here.

Experiments:
Assay type in all cases: cell-based
human SGLT4 = biological target: T1, human SGLT4 (Homo sapiens, UniProt Q2M3M2); assay: Inhibition of 10 µM radiolabelled mannose transport in HEK293T cells overexpressing human SGLT4; details: for inhibition at 10000 µM: HEK-293T, read-out: hSGLT4 inhibition with 10 mM inhibitor
T1 construct: expressed in transfected cells
T1 sequence (Q2M3M2 1-681): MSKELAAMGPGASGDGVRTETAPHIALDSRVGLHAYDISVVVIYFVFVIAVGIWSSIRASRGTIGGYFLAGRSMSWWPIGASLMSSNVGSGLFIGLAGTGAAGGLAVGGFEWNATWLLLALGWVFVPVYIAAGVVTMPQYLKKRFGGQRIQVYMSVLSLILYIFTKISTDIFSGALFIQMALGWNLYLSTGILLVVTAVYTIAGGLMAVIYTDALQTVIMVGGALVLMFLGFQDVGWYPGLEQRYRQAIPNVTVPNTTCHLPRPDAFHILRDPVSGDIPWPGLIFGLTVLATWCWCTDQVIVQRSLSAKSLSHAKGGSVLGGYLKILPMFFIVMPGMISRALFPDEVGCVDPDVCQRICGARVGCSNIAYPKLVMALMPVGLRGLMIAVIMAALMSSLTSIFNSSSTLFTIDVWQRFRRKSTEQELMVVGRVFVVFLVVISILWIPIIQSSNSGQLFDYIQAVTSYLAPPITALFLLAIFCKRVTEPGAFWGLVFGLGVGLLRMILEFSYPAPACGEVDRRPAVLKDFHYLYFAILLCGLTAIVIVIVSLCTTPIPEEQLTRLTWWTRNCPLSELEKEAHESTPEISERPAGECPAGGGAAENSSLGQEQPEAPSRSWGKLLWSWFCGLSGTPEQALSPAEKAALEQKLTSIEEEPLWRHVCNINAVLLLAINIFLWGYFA
Procedure: (§1) For a typical transporter experiment we proceeded as follows. […] To minimize cell loss during the various washing steps in the radioactive uptake experiments, the wells where the cells were seeded were previously coated with poly- D-lysine, which improved their adhesion to the plastic surface of the wells. For this, each well of the 24-well plates was treated with 200 µl of a 0.01% poly-L-lysine solution for 10 min, washed 3 times with 1 ml of sterilized water and left to dry for 2 h. Only then could the 24-well plates be seeded with the appropriate cell lines and cultured overnight at 37 °C in 5% CO2.
(§2) On day two, the radioactive uptake assay could be performed. The cell culture media was removed by aspiration and cells were incubated for 20 min at 37 °C and 5% CO2 with a basal medium (10 mM HEPES, pH 7.4, 1 mM CaCl2, 1 mM MgCl2, 2 mM KCl) containing 140 mM choline chloride to deplete intracellular […] ions. This was subsequently replaced with the uptake medium (basal medium + 140 mM NaCl, 25 μM cytochalasin B, 1 mg/ml BSA) containing either radioactive U-[^14C]-mannose (15,000 cpm/well) or 2-[^3H]-1,5-AG (30,000 cpm/well) and respectively, non-radioactive mannose or 1,5-AG, at the required concentration in the experiment. Importantly, when measuring the transport of mannose, the uptake media also contained 0.5 mM glucose. This resulted from the need to reduce the background transport of mannose in control HEK293T cells in order to optimize the transport assay for this sugar in our model cell lines. Consequently, after testing various inhibitors (Supplementary Fig. 1), 0.5 mM glucose + 25 µM cytochalasin B appeared as the best combination to decrease efficiently the endogenous transport of mannose in control cells without affecting the transport of mannose in model cell lines overexpressing SGLT4 and SGLT5. Therefore in the radioactive uptake assays for mannose, the uptake medium was: basal uptake medium + 140 mM NaCl, 25 μM cytochalasin B, 0.5 mM glucose and 1 mg/ml BSA to which we added U-[^12C + ^14C]-mannose as described above.
(§3) Once the uptake medium was added to the cells, the plates were incubated at 37 °C in 5% CO2 during the required time. […] In each experiment, the transport activities were calculated after subtracting a “blank” value, corresponding to the radioactivity in the appropriate control cells (HEK293T cells that were stably or transiently transfected with one of the parent plasmids pEF6/MycHisA, pEF6HisB, pUB82 or pUB83 with no inserted cDNA) that were analyzed in parallel.
(§4) The transport experiments to study the specificity of SGLT4 or SGLT5, were performed in the presence of 10 µM U-[^14C + ^12C]-mannose (for SGLT4) or 2-[^3H + ^1H]-1,5-AG (for SGLT5) and increasing concentrations of various sugars tested. The transport experiments to study the inhibition of empagliflozin, dapagliflozin or remogliflozin, on the transport of 1,5-AG by SGLT5 or its variants were performed in the presence of 10 µM 2-[^3H + ^1H]-1,5-AG and increasing concentrations of the various gliflozins tested.

human SGLT5 = biological target: T2, human SGLT5 (Homo sapiens, UniProt A0PJK1); assay: Inhibition of 10 µM radiolabelled 1,5-AG transport in HEK293T cells overexpressing human SGLT5
T2 construct: expressed in transfected cells
T2 sequence (A0PJK1 1-596): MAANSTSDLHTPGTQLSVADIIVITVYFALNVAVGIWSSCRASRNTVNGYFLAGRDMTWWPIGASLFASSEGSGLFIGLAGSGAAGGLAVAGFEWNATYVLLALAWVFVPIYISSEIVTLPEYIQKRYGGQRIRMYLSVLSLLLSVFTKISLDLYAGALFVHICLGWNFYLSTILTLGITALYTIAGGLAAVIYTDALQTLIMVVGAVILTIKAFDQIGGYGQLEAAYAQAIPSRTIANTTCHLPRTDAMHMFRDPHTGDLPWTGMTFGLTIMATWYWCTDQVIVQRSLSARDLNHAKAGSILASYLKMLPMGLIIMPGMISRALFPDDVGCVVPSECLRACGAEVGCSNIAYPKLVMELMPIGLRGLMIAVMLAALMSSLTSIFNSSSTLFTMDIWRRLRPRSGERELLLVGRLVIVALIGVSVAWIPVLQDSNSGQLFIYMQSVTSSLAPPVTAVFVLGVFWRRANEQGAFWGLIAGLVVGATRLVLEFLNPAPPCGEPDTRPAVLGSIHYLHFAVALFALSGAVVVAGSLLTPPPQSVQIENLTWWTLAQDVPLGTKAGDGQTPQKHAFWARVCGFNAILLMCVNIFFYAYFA
Procedure: as §1, §2, §3, §4

[1] = biological target: T3, SGLT5-TM (S70N–E71I–L75H) (Homo sapiens, UniProt A0PJK1, E71I/L75H/S70N); assay: Inhibition of 10 µM 1,5-AG transport by triple mutant SGLT5-TM (S70N-E71I-L75H); details: versus wild-type SGLT5, competition experiments, Supplementary Fig. 7
T3 construct: pUB83-hSGLT5-iso2 as well as the various SGLT5 mutants obtained were used to transduce HEK293T cells; expressed in transfected cells; host or cells: HEK293T, lentiviral transduction (pUB83)
Procedure: as §4
SGLT5 mutants were created using the quick-change site directed mutagenesis method that enables effective mutagenesis without subcloning of the amplified PCR products. Complementary primer pairs carrying the desired replacements (Supplementary Table 3) were designed using an online tool (https://www.agilent.com/store/primerDesignProgram.jsp). The PCR protocol was carried out following the manufacturer instructions regarding the KOD HOT Start polymerase kit (TOYOBO™, Novagen). The amplified DNA was cleaned-up from the reactions constituents using the GeneJET PCR purification Kit (Thermo Scientific™) and the size of the DNA fragment were verified by DNA agarose-gel electrophoresis. After eliminating the parental DNA by digesting the purified DNA with the DpnI restriction enzyme, the DNA fragments containing the appropriate changes were transformed in E. coli NEB Turbo competent cells (C2984H). Once colonies were obtained, plasmid DNA was finally amplified, purified and sequenced to verify that the required changes had been introduced and eliminate any PCR errors. Next, pUB83-hSGLT5-iso2 as well as the various SGLT5 mutants obtained were used to transduce HEK293T cells using the exact same protocol as described above to create model cell lines overexpressing the different SGLT5 transporters.
Supplementary Fig. 7: Substrate specificity of SGLT5 - impact of replacing specific and conserved substrate binding residues in human SGLT5 by the equivalent ones in […]
When shown, the IC50 values are derived from inhibition curves showing the transport activity of 1,5-AG by the indicated SGLT5 mutants. Values show the concentration needed of the various sugars to inhibit by 50% the transport activity of 10 µM 2-[1H+3H]-1,5-AG. When the inhibition was too weak to derive IC50 values, the inhibition of the transport of 1,5-AG with the indicated concentration of the inhibitor-sugar is shown. Of note, despite having a lower […]
µM). These apparently contradictory changes are not necessarily surprising: in the case of enzymes, there are multiple examples of mutations that, at the same time, increase the apparent affinity (decrease the Km) of an enzyme for its substrate while decreasing the Vmax.
Measurement of transport activities and the description of the structures of the various inhibitory sugars used are as in Fig. 3C. Data corresponds to n = 3 in at least 2 independent […]
(1 picture or pasted object on this page, not shown here)

[2] = substrate: OC[C@H]1OC[C@H](O)[C@@H](O)[C@@H]1O; assay: Radioactive uptake assay (saturation kinetics) in HEK293T cells expressing mouse SGLT5; details: other: 30 min, Supplementary Fig. 4; pH 7.4; 37.0 °C
Procedure: as §1
On day two, the radioactive uptake assay could be performed. […]
Once the uptake medium was added to the cells, the plates were incubated at 37 °C in 5% CO2 during the required time. […] In each experiment, the transport activities were calculated after subtracting a “blank” value, corresponding to the radioactivity in the appropriate control cells (HEK293T cells that were stably or transiently transfected with one of the parent plasmids pEF6/MycHisA, pEF6HisB, pUB82 or pUB83 with no inserted cDNA) that were analyzed in parallel. […]
Supplementary Fig. 4: Transport activities for 1,5-anhydroglucitol and mannose of recombinant mouse SGLT4 and SGLT5 isoforms measured in HEK293T cells. […]

[3] = 10 mM inhibitor, substrate 10 μM mannose
[4] = substrate 10 μM 1,5-AG, unlabelled sugars, Fig. 3C, read-out: hSGLT5 IC50
[5] = 10 µM 2-[1H+3H]-1,5-AG, Fig. 5C, read-out: IC50 for SGLT5-mediated 1,5-AG transport (gliflozins)

T3 sequence (A0PJK1 whole entry S70N/E71I/L75H): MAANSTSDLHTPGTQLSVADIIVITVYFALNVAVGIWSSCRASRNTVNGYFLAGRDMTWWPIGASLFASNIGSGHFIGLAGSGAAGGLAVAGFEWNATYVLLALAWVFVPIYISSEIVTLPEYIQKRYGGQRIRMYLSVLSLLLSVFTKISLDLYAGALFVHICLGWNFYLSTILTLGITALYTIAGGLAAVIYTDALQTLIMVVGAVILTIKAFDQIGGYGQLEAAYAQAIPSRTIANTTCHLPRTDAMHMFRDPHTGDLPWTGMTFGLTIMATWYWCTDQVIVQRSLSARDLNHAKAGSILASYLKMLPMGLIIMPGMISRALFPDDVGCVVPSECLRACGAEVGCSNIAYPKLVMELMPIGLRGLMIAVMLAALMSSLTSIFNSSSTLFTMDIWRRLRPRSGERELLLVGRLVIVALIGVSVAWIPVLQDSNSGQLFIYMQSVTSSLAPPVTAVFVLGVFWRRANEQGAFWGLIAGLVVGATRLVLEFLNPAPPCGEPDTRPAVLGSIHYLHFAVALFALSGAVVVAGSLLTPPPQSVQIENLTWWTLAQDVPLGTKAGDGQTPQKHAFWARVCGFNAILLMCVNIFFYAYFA

O=C1CO[C@H](CO)[C@@H](O)[C@@H]1O [1,5-AF, 1,5-anhydrofructose]
inhibition at 10000 µM (human SGLT4; [3]): 44%
IC50 (human SGLT5; [4]): 179 µM

OC[C@H]1OC[C@@H](O)[C@@H](O)[C@@H]1O [1,5-AM, 1,5-anhydromannitol]
less affinity of SGLT4 compared to SGLT5 (human SGLT4; from Fig. 3C): 200 fold
IC50 (human SGLT4; substrate 10 μM mannose, Fig. 3C, read-out: hSGLT4 IC50): 2300 µM
loss of affinity of SGLT5-TM [1]: 250 fold
preference for 1,5-anhydromannitol over 1,5-AG, difference in Ki (human SGLT5; SGLT5): 12 fold
preference of 1,5-anhydromannitol over mannose, difference in Ki (human SGLT5; SGLT5): 25 fold
IC50 (human SGLT5; [4]): 13 µM

O=C(CO)[C@@H](O)[C@H](O)[C@H](O)CO [Fructose, fructose]
inhibition at 10000 µM (human SGLT4; [3]): 33%
loss of affinity of SGLT5-TM [1]: tenfold
IC50 (human SGLT5): 726 µM

OC[C@H]1OC(O)[C@H](O)[C@@H](O)[C@@H]1O (some centres unmarked) [Glucose, glucose]
inhibition at 10000 µM (human SGLT4; [3]): 20%
gain of affinity of SGLT5-TM [1]: 30 fold
IC50 (human SGLT5; [4]): 3650 µM

CCOc1ccc(Cc2cc([C@@H]3O[C@H](CO)[C@@H](O)[C@H](O)[C@H]3O)ccc2Cl)cc1 [dapagliflozin]
IC50 (human SGLT5; [5]): 0.4 µM

Cc1c(Cc2ccc(OC(C)C)cc2)c(O[C@@H]2O[C@H](CO)[C@@H](O)[C@H](O)[C@H]2O)nn1C(C)C [remogliflozin]
IC50 (human SGLT5; [5]): 0.26 µM and 0.27 µM

galactose
hSGLT4 inhibition with 10 mM inhibitor (human SGLT4; [3]): 39%
gain of affinity of SGLT5-TM [1]: 30 fold
hSGLT5 inhibition with 10 mM inhibitor (human SGLT5; 10 mM inhibitor, substrate 10 μM 1,5-AG): 10%

B1: mouse SGLT5 (Mus musculus) (protein)
chain: MAGNSTGDAHVPGSQLSVTDIIVISVYFALNVAVGIWSACRANKNTVSGYFLAGRDMAWWPIGASLFASSEGSGLFVGLAGSGAAGGLAVAGFEWNATYVLLALAWVFVPIYISSEIVTLPEYIQKRFGGQRIRTYLSVLSLMLSVFTKISIDLYAGALFVHICLGWNFYLSTILTLAITALYTIAGGLATVIYTDALQTIIMVVGAVILAVKAFNQIGGYEQLEAAYAQAIPSRTIPNTTCHLPRADAMHMFRDPSTGDLPWTGMTFGLTIMATWYWCTDQVIVQRSLSARNLNHAKAGSILASYLKMLPMGLMIMPGMISRVLFPDDVGCVVPSECLRACGAEIGCSNIAYPKLVMELMPIGLRGLMIAVMMAALLSSLTSIFNSSSTLFTMDIWRQLRPSAGERELLLVGRLVIVVLIGVSVAWIPVLQGSNSGQLFIYMQSVTSSLAPPVTAIFILGIFWRRANEQGAFWGLMAGLVVGALRLVLEFLYPEPPCGQIDTRPAPLRSLHYLHFAIALFLLTCAVMAAGSLLSPPPQQRQIENLTWWTLAPNWSLGTKTGDGQTPQKRAFWARVCNVNAIFLMCVNIFFYAYFA
notes: expressed in transfected cells; host or cells: HEK293T
Km [2]: 500 µM
